ChEMBL document CHEMBL4049384, “Synthesis and evaluation of an injectable everolimus prodrug” (Bioorg Med Chem Lett, 2017)

Experiments:
Mus musculus [1] = assay: Toxicity in nude mouse xenografted with human OS-RC2 cells assessed as body weight loss at 1.5 mg/kg, iv administered three times a week measured on Day 15 (reference value: 20.2 %); format: organism-based; conditions: in vivo
PC-3 = assay: Antiproliferative activity against human PC3 cells after 48 hrs by MTT assay; format: functional, cell-based; conditions: PC-3, 48 h
Mus musculus [2] = assay: Toxicity in nude mouse xenografted with human OS-RC2 cells assessed as body weight loss at 1.5 mg/kg administered three times a week intravenously and measured on Day 12 (reference value: 15 %); format: organism-based; conditions: in vivo, iv
Mus musculus [3] = assay: Toxicity in nude mouse xenografted with human OS-RC2 cells assessed as body weight loss at 24 mg/kg, iv administered once weekly measured on day 12 (reference value: 15 %); format: organism-based; conditions: in vivo
OS-RC-2 [4] = assay: Antitumor activity against human OS-RC2 cells xenografted in nude mouse assessed as reduction in tumor volume at 24 mg/kg, iv administered once weekly measured on day 12 relative to control; format: functional
OS-RC-2 [5] = assay: Antitumor activity against human OS-RC2 cells xenografted in nude mouse assessed as tumor volume at 24 mg/kg, iv administered once weekly and measured on day 1 (reference value: 167.51 +/- 17.09 mm3); format: functional
OS-RC-2 [6] = assay: Antitumor activity against human OS-RC2 cells xenografted in nude mouse assessed as reduction in tumor volume at 24 mg/kg, iv administered once weekly measured on day 26 relative to control; format: functional
OS-RC-2 [7] = assay: Antitumor activity against human OS-RC2 cells xenografted in nude mouse assessed as reduction in tumor volume at 1.5 mg/kg, iv administered three times a week measured on day 5 relative to control; format: functional
HepG2 = assay: Antiproliferative activity against human HepG2 cells after 48 hrs by MTT assay; format: functional, cell-based; conditions: HepG2, 48 h
MDA-MB-435 = assay: Antiproliferative activity against human MDA-MB-435 cells after 48 hrs by MTT assay; format: functional, cell-based; conditions: MDA-MB-435, 48 h
Mus musculus [8] = assay: Toxicity in nude mouse xenografted with human OS-RC2 cells assessed as body weight loss at 1.5 mg/kg administered three times a week intravenously and measured on Day 26 (reference value: 28.2 %); format: organism-based; conditions: in vivo, iv
Blood [9] = assay: Prodrug conversion in Sprague-Dawley rat blood assessed as everolimus level at 2.724 mg/kg, iv at 3 hrs post dose by HPLC method; format: ADME, organism-based; conditions: in vivo
OS-RC-2 [10] = assay: Antitumor activity against human OS-RC2 cells xenografted in nude mouse assessed as tumor volume at 1.5 mg/kg, iv administered three times a week measured on day 1 (reference value: 167.51 +/- 17.09 mm3); format: functional
OS-RC-2 [11] = assay: Antitumor activity against human OS-RC2 cells xenografted in nude mouse assessed as reduction in tumor volume at 1.5 mg/kg, iv administered three times a week measured on day 19 relative to control; format: functional
OS-RC-2 [12] = assay: Antitumor activity against human OS-RC2 cells xenografted in nude mouse assessed as tumor weight at 24 mg/kg, iv administered once weekly measured after 32 days (reference value: 0.68 +/- 0.06 g); format: functional
OS-RC-2 [13] = assay: Antitumor activity against human OS-RC2 cells xenografted in nude mouse assessed as tumor growth inhibition at 1.5 mg/kg, iv administered three times a week measured after 32 days relative to control; format: functional; conditions: OS-RC-2, iv, 768 h, read-out: TGI
Blood [14] = assay: Prodrug conversion in Sprague-Dawley rat blood assessed as everolimus level at 2.724 mg/kg, iv at 1 hr post dose by HPLC method; format: ADME, organism-based; conditions: in vivo
Mus musculus [15] = assay: Toxicity in nude mouse xenografted with human OS-RC2 cells assessed as body weight loss at 24 mg/kg, iv administered once weekly measured on day 29 (reference value: 31.2 %); format: organism-based; conditions: in vivo
Blood [16] = assay: Prodrug conversion in Sprague-Dawley rat blood assessed as everolimus level at 2.724 mg/kg, iv at 0.0833 hrs post dose by HPLC method; format: ADME, organism-based; conditions: in vivo, 5 min
NCI-H460 = assay: Antiproliferative activity against human NCI-H460 cells after 48 hrs by MTT assay; format: functional, cell-based; conditions: NCI-H460, 48 h
OS-RC-2 [17] = assay: Antitumor activity against human OS-RC2 cells xenografted in nude mouse assessed as reduction in tumor volume at 24 mg/kg, iv administered once weekly measured on day 5 relative to control; format: functional
Blood [18] = assay: Prodrug conversion in Sprague-Dawley rat blood assessed as everolimus level at 2.724 mg/kg, iv at 4 hrs post dose by HPLC method; format: ADME, organism-based; conditions: in vivo
Blood [19] = assay: Prodrug conversion in Sprague-Dawley rat blood assessed as everolimus level at 2.724 mg/kg, iv at 8 hrs post dose by HPLC method; format: ADME, organism-based; conditions: in vivo
OS-RC-2 [20] = assay: Antitumor activity against human OS-RC2 cells xenografted in nude mouse assessed as reduction in tumor volume at 24 mg/kg, iv administered once weekly measured on day 19 relative to control; format: functional
Mus musculus [21] = assay: Toxicity in nude mouse xenografted with human OS-RC-2 cells assessed as body weight loss at 24 mg/kg, iv administered once weekly measured on day 5 (reference value: 1.9%); format: organism-based; conditions: in vivo
[22] = Cmax in Sprague-Dawley rat at 2.724 mg/kg, iv; format: ADME, organism-based; set-up: dose 2.724 mg/kg, route intravenous; conditions: in vivo
Blood [23] = assay: Prodrug conversion in Sprague-Dawley rat blood assessed as everolimus level at 2.724 mg/kg, iv at 0.25 hrs post dose by HPLC method; format: ADME, organism-based; conditions: in vivo
Mus musculus [24] = assay: Toxicity in nude mouse xenografted with human OS-RC2 cells assessed as body weight loss at 1.5 mg/kg administered three times a week intravenously and measured on Day 29 (reference value: 31.2 %); format: organism-based; conditions: in vivo, iv
[25] = Tmax in Sprague-Dawley rat at 2.724 mg/kg, iv; format: ADME, organism-based; conditions: in vivo
OS-RC-2 [26] = assay: Antitumor activity against human OS-RC2 cells xenografted in nude mouse assessed as reduction in tumor volume at 24 mg/kg, iv administered once weekly measured on day 8 relative to control; format: functional
Mus musculus [27] = assay: Toxicity in nude mouse xenografted with human OS-RC2 cells assessed as body weight loss at 1.5 mg/kg administered three times a week intravenously and measured on Day 19 (reference value: 23.1 %); format: organism-based; conditions: in vivo, iv
Mus musculus [28] = assay: Toxicity in nude mouse xenografted with human OS-RC2 cells assessed as body weight loss at 24 mg/kg, iv administered once weekly measured on day 15 (reference value: 20.2 %); format: organism-based; conditions: in vivo
OS-RC-2 [29] = assay: Antitumor activity against human OS-RC2 cells xenografted in nude mouse assessed as reduction in tumor volume at 24 mg/kg, iv administered once weekly measured on day 22 relative to control; format: functional
Mus musculus [30] = assay: Toxicity in nude mouse xenografted with human OS-RC-2 cells assessed as death at 24 mg/kg, iv administered once weekly measured after 32 days; format: organism-based; conditions: in vivo, 768 h
OS-RC-2 [31] = assay: Antitumor activity against human OS-RC2 cells xenografted in nude mouse assessed as reduction in tumor volume at 1.5 mg/kg, iv administered three times a week measured on day 22 relative to control; format: functional
Rattus norvegicus = assay: Prodrug conversion in rat assessed as everolimus formation by measuring everolimus AUC at 2 mg/kg, iv; format: ADME, organism-based; conditions: in vivo
[32] = AUC (0 to t) in Sprague-Dawley rat at 2.724 mg/kg, iv; format: ADME, organism-based; conditions: in vivo
Mus musculus [33] = assay: Toxicity in nude mouse xenografted with human OS-RC-2 cells assessed as death at 1.5 mg/kg, iv administered three times a week measured after 32 days; format: organism-based; conditions: in vivo, 768 h

Compound: CO[C@H]1C[C@@H]2CC[C@@H](C)[C@@](O)(O2)C(=O)C(=O)N2CCCC[C@H]2C(=O)O[C@H]([C@H](C)C[C@@H]2CC[C@@H](OCCOC(=O)CSC[C@H](NC(=O)CC[C@H](N)C(=O)O)C(=O)NCC(=O)O)[C@H](OC)C2)CC(=O)[C@H](C)/C=C(\C)[C@@H](O)[C@@H](OC)C(=O)[C@H](C)C[C@H](C)\C=C/C=C/C=C/1C
- Activity (Mus musculus [1]): 12%
- IC50 (PC-3): 25.9 µM
- Activity (Mus musculus [2]): 9.5%
- Activity (Mus musculus [3]): 6.3%
- T/C (OS-RC-2 [4]): 0.47%
- Activity (OS-RC-2 [5]): 167.06 mm3
- T/C (OS-RC-2 [6]): 0.55%
- T/C (OS-RC-2 [7]): 0.72%
- IC50 (HepG2): 11.1 µM
- IC50 (MDA-MB-435): 55.3 µM
- Activity (Mus musculus [8]): 13.1%
- Drug metabolism (Blood [9]): 16.9443 ng/mL
- Activity (OS-RC-2 [10]): 167.6 mm3
- T/C (OS-RC-2 [11]): 0.57%
- Activity (OS-RC-2 [12]): 0.26 g
- inhibition in vivo at 1.5 mg/kg (OS-RC-2 [13]): 57.1%
- Drug metabolism (Blood [14]): 73.5532 ng/mL
- Activity (Mus musculus [15]): 10.5%
- Drug metabolism (Blood [16]): 8421.1173 ng/mL
- IC50 (NCI-H460): 27.2 µM
- T/C (OS-RC-2 [17]): 0.55%
- Drug metabolism (Blood [18]): 13.8243 ng/mL
- Drug metabolism (Blood [19]): 6.8915 ng/mL
- T/C (OS-RC-2 [20]): 0.49%
- Activity (Mus musculus [21]): 6.2%
- Cmax [22]: 8420 ng/mL
- Drug metabolism (Blood [23]): 1995.0467 ng/mL
- Activity (Mus musculus [24]): 11.5%
- Tmax [25]: 4.98 min
- T/C (OS-RC-2 [26]): 0.41%
- Activity (Mus musculus [27]): 11.5%
- Activity (Mus musculus [28]): 8.9%
- T/C (OS-RC-2 [29]): 0.55%
- Activity (Mus musculus [30]): Non-Toxic
- T/C (OS-RC-2 [31]): 0.56%
- AUC (Rattus norvegicus): 2500 ng·h/mL
- AUC(0-t) [32]: 2490 ng·h/mL
- Activity (Mus musculus [33]): Non-Toxic
